Earlier results, collected in patent publication US20080108586A1, “COMBINATION THERAPY FOR HUMAN IMMUNODEFICIENCY VIRUS INFECTION” (Incyte Corporation, priority 2006, published 2008).

Experiments:
[1] = biological target: rhesus macaque CCR5 (Macaca mulatta, UniProt P61813)
[2] = biological target: human CCR5 (Homo sapiens, UniProt P51681)
Sequence of human CCR5 (P51681 whole entry): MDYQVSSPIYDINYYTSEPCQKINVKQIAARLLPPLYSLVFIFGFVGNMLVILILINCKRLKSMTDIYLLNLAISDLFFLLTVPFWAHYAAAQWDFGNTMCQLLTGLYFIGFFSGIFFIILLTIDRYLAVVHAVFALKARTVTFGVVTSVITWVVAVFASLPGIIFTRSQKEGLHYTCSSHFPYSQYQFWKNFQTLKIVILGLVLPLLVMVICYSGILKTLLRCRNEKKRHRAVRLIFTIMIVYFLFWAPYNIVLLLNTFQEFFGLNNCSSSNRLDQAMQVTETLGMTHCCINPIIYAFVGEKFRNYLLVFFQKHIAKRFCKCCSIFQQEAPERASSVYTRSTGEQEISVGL

In the case of `Cc1ncnc(C)c1C(=O)N1CCC(C)(N2CCN([C@@H](C)c3ccc(C(F)(F)F)cc3)[C@@H](C)C2)CC1` [AD101, (4,6-dimethylpyrimidin-5-yl)(4-methyl-4-((S)-3-methyl-4-((S)-1-(4-(trifluoromethyl)-phenyl)ethyl)piperazin-1-yl)piperidin-1-yl)methanone], the “inhibition of HIV-1 entry via rhesus macaque CCR5” value [1] is listed as “inhibits” and the “inhibition of HIV-1 entry via human CCR5” value [2] is listed as “inhibits”.
